From PubChem BioAssay AID256 (DTP/NCI, 2004) come the findings set out here.

Each structure is given as a SMILES string. “And” between values parts separate entries of the source, which are not always exact repeats. Equal entries are not always repeated. Inconclusive results and toxic doses are left out.

The assay relates to CD2F1 mice, L1210 leukemia ip, survival T/C. The experiment in a line: NCI In Vivo Anticancer Drug Screen. Data for tumor model L1210 Leukemia (intraperitoneal) in CD2F1 (CDF1) mice. The settings on record: higher = longer survival. A digest of the protocol: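 Implant tumor; dose compound or vehicle; measure endpoint in both groups; report treated divided by control.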
Setting [1] is: endpoint: mean survival time, dose: 100.0 mg/kg/injection, schedule: Q01DX001 (ip), vehicle: saline with Tween-80.
Setting [2] is: endpoint: mean survival time, dose: 200.0 mg/kg/injection, schedule: Q01DX001 (ip), vehicle: saline with Tween-80.
[3] abbreviates: endpoint: mean survival time, dose: 100.0 mg/kg/injection, schedule: Q04DX003 (ip), vehicle: saline with Tween-80.
Where [4] appears, read: endpoint: mean survival time, dose: 200.0 mg/kg/injection, schedule: Q04DX003 (ip), vehicle: saline with Tween-80.
The mark [5] stands for this setting: endpoint: mean survival time, dose: 400.0 mg/kg/injection, schedule: Q04DX003 (ip), vehicle: saline with Tween-80.
The mark [6] stands for this setting: endpoint: mean survival time, dose: 100.0 mg/kg/injection, schedule: Q01DX009 (ip), vehicle: saline with Tween-80.
[7] abbreviates: endpoint: mean survival time, dose: 200.0 mg/kg/injection, schedule: Q01DX009 (ip), vehicle: saline with Tween-80.

Turning to `CC(C)c1ccc(-n2cnc3c(=O)[nH]c(N)nc32)cc1`, the T/C was 94 % of control under setting [1]; 94 % of control under setting [2]; 91 % of control (endpoint: mean survival time, dose: 400.0 mg/kg/injection, schedule: Q01DX001 (ip), vehicle: saline with Tween-80).
Turning to `[N-]=[N+]=NC1CC(n2ccc(=O)[nH]c2=O)OC1COC(c1ccccc1)(c1ccccc1)c1ccccc1` (stereo not given), the T/C was 96 % of control (endpoint: median survival time, dose: 12.5 mg/kg/injection, schedule: Q01DX005 (ip), vehicle: saline with Tween-80); 101 % of control (endpoint: median survival time, dose: 25.0 mg/kg/injection, schedule: Q01DX005 (ip), vehicle: saline with Tween-80); 94 % of control (endpoint: median survival time, dose: 50.0 mg/kg/injection, schedule: Q01DX005 (ip), vehicle: saline with Tween-80); 95 % of control (endpoint: median survival time, dose: 100.0 mg/kg/injection, schedule: Q01DX005 (ip), vehicle: saline with Tween-80); 91 % of control (endpoint: median survival time, dose: 200.0 mg/kg/injection, schedule: Q01DX005 (ip), vehicle: saline with Tween-80).
For the molecule `CN(C)S(=O)(=O)Oc1cccc(N)c1`, the T/C by setting is: under setting [3], 92 % of control; under setting [4], 87 % of control.
`CC1=C(/C=C/C(=O)CC(O)(C(F)(F)F)C(F)(F)F)C(C)(C)CCC1`: the T/C under setting [3] was 104 % of control, the T/C under setting [4] is 98 % of control and the T/C under setting [5] is 101 % of control.
As to `NC(=S)N/N=C\c1nccc2c(C(F)(F)C(F)(F)C(F)(F)F)cccc12`, the T/C was 93 % of control (endpoint: mean survival time, dose: 100.0 mg/kg/injection, schedule: Q04DX002 (ip), vehicle: saline with Tween-80); 96 % of control (endpoint: mean survival time, dose: 200.0 mg/kg/injection, schedule: Q04DX002 (ip), vehicle: saline with Tween-80); 96 % of control (endpoint: mean survival time, dose: 400.0 mg/kg/injection, schedule: Q04DX002 (ip), vehicle: saline with Tween-80).
With `NCCOC(=O)/C=C/c1ccccc1`, the T/C runs as follows: (endpoint: mean survival time, dose: 100.0 mg/kg/injection, schedule: Q01DX009 (ip), vehicle: saline) 93 % of control; (endpoint: mean survival time, dose: 200.0 mg/kg/injection, schedule: Q01DX009 (ip), vehicle: saline) 97 % of control.
Consider `Nc1ncnc2cc3c(cc12)ncn3C1OC(CO)C(O)C1O` (stereo not given), for which the T/C (endpoint: mean survival time, dose: 12.5 mg/kg/injection, schedule: Q01DX005 (ip), vehicle: water) is 92 % of control; the T/C (endpoint: mean survival time, dose: 25.0 mg/kg/injection, schedule: Q01DX005 (ip), vehicle: water) was 104 % of control; the T/C (endpoint: mean survival time, dose: 50.0 mg/kg/injection, schedule: Q01DX005 (ip), vehicle: water) is 104 % of control; the T/C (endpoint: mean survival time, dose: 100.0 mg/kg/injection, schedule: Q01DX005 (ip), vehicle: water) was 112 % of control; the T/C (endpoint: mean survival time, dose: 200.0 mg/kg/injection, schedule: Q01DX005 (ip), vehicle: water) was 110 % of control.
Consider `C/C(=N/O)[c-]1[c-][c-][c-][c-]1.[Fe].[c-]1[c-][c-][cH-][c-]1`, for which the T/C is, setting by setting: (endpoint: mean survival time, dose: 50.0 mg/kg/injection, schedule: Q01DX009 (ip), vehicle: saline with Tween-80) 97 % of control; under setting [1], 95 % of control; under setting [6], 94 % of control; under setting [2], 101 % of control.
As for `COC(=O)C[C@](O)(CCC(C)(C)O)C(=O)O[C@@H]1C(OC)=C[C@]23CCCN2CCc2cc4c(cc2[C@H]13)OCO4`, the T/C runs as follows: (endpoint: median survival time, dose: 0.06 mg/kg/injection, schedule: Q01DX009 (ip), vehicle: saline) 120 % of control; (endpoint: median survival time, dose: 0.12 mg/kg/injection, schedule: Q01DX009 (ip), vehicle: saline) 119 % of control; (endpoint: median survival time, dose: 0.25 mg/kg/injection, schedule: Q01DX009 (ip), vehicle: saline) 120 % of control; (endpoint: median survival time, dose: 0.5 mg/kg/injection, schedule: Q01DX009 (ip), vehicle: saline) 118 % of control and 120 % of control; (endpoint: median survival time, dose: 4.0 mg/kg/injection, schedule: Q01DX009 (ip), vehicle: saline) 153 % of control.
With `CC(=O)NS(=O)(=O)c1ccc(NC(=O)/C=C/C(=O)O)cc1`, the T/C (endpoint: mean survival time, dose: 100.0 mg/kg/injection, schedule: Q04DX003 (ip), vehicle: saline) was 100 % of control; the T/C (endpoint: mean survival time, dose: 200.0 mg/kg/injection, schedule: Q04DX003 (ip), vehicle: saline) was 100 % of control; the T/C (endpoint: mean survival time, dose: 400.0 mg/kg/injection, schedule: Q04DX003 (ip), vehicle: saline) is 100 % of control.
As to `OC1(C(Cl)(Cl)Cl)CCCCC1`, the T/C reads like this: (endpoint: mean survival time, dose: 100.0 mg/kg/injection, schedule: Q01DX009 (ip), vehicle: other) 101 % of control; (endpoint: mean survival time, dose: 200.0 mg/kg/injection, schedule: Q01DX009 (ip), vehicle: other) 103 % of control; (endpoint: mean survival time, dose: 400.0 mg/kg/injection, schedule: Q01DX009 (ip), vehicle: other) 106 % of control.
`CCCC(C)C1(CC)NC(C)(C)CC(C)O1` (stereo not given): the T/C is 103 % of control under setting [3] and 87 % of control under setting [4].
For the molecule `[N-]=[N+]=[N-]`, the T/C (endpoint: median survival time, dose: 0.75 mg/kg/injection, schedule: Q01DX009 (ip), vehicle: saline) is 101 % of control; the T/C (endpoint: median survival time, dose: 1.5 mg/kg/injection, schedule: Q01DX009 (ip), vehicle: saline) was 101 % of control; the T/C (endpoint: median survival time, dose: 3.0 mg/kg/injection, schedule: Q01DX009 (ip), vehicle: saline) was 93 % of control; the T/C (endpoint: median survival time, dose: 6.0 mg/kg/injection, schedule: Q01DX009 (ip), vehicle: saline) is 103 % of control; the T/C (endpoint: median survival time, dose: 12.0 mg/kg/injection, schedule: Q01DX009 (ip), vehicle: saline) was 92 % of control.
Turning to `O=C1NC(c2ccccc2)C2/C=C\CCCCC12` (stereo not given), the T/C by setting is: (endpoint: mean survival time, dose: 75.0 mg/kg/injection, schedule: Q04DX002 (ip), vehicle: saline with Tween-80) 93 % of control; (endpoint: mean survival time, dose: 150.0 mg/kg/injection, schedule: Q04DX002 (ip), vehicle: saline with Tween-80) 96 % of control; (endpoint: mean survival time, dose: 300.0 mg/kg/injection, schedule: Q04DX002 (ip), vehicle: saline with Tween-80) 93 % of control.
For the molecule `CC(=O)OCC(C)CCC(=O)C(C)C1C(=O)CC2C3CC=C4CC(OC(C)=O)CCC4(C)C3CCC21C` (stereo not given), the T/C is 100 % of control under setting [6]; 97 % of control under setting [7]; 91 % of control (endpoint: mean survival time, dose: 400.0 mg/kg/injection, schedule: Q01DX009 (ip), vehicle: saline with Tween-80).
Turning to `CN(C)C(=O)CCC(NC(=O)c1ccc(N(C)Cc2cnc3nc(N)nc(N)c3n2)cc1)C(=O)O` (stereo not given), the T/C (endpoint: mean survival time, dose: 1.0 mg/kg/injection, schedule: Q01DX009 (ip), vehicle: sodium bicarbonate) was 103 % of control and the T/C (endpoint: mean survival time, dose: 10.0 mg/kg/injection, schedule: Q01DX009 (ip), vehicle: sodium bicarbonate) is 108 % of control.
On to `NC(=O)C(NCc1ccccc1)c1ccccc1` (stereo not given), for which the T/C was 94 % of control under setting [3] and 99 % of control under setting [4].
Turning to `NCC(Cl)c1ccccc1` (stereo not given), the T/C reads like this: under setting [6], 97 % of control; under setting [7], 95 % of control.
Consider `CC(/C=C/c1ccccc1)=Nc1ccccc1`, for which the T/C under setting [3] is 106 % of control; the T/C under setting [4] is 103 % of control; the T/C under setting [5] is 106 % of control; the T/C (endpoint: median survival time, dose: 12.5 mg/kg/injection, schedule: Q01DX009 (ip), vehicle: saline with Tween-80) is 108 % of control; the T/C (endpoint: median survival time, dose: 25.0 mg/kg/injection, schedule: Q01DX009 (ip), vehicle: saline with Tween-80) was 98 % of control; the T/C (endpoint: median survival time, dose: 50.0 mg/kg/injection, schedule: Q01DX009 (ip), vehicle: saline with Tween-80) is 111 % of control. Moreover, the T/C reads like this: (endpoint: median survival time, dose: 100.0 mg/kg/injection, schedule: Q01DX009 (ip), vehicle: saline with Tween-80) 107 % of control; (endpoint: median survival time, dose: 200.0 mg/kg/injection, schedule: Q01DX009 (ip), vehicle: saline with Tween-80) 104 % of control.
Consider `COc1ccc(CCN2C(=O)C=CC2=O)cc1OC`, for which the T/C (endpoint: mean survival time, dose: 5.0 mg/kg/injection, schedule: Q01DX001 (ip), vehicle: saline) was 94 % of control; the T/C (endpoint: mean survival time, dose: 5.0 mg/kg/injection, schedule: Q01DX009 (ip), vehicle: saline) is 94 % of control; the T/C (endpoint: mean survival time, dose: 10.0 mg/kg/injection, schedule: Q01DX001 (ip), vehicle: saline) was 94 % of control; the T/C (endpoint: mean survival time, dose: 10.0 mg/kg/injection, schedule: Q01DX009 (ip), vehicle: saline) was 97 % of control; the T/C (endpoint: mean survival time, dose: 20.0 mg/kg/injection, schedule: Q01DX001 (ip), vehicle: saline) is 91 % of control.
